Legend:
human SLC6A19 [1] = biological target: T1, human SLC6A19 (Homo sapiens, UniProt Q695T7); test: Example B2: 13C6,15N-isoleucine uptake, RapidFire mass spectrometry, in CHO cells with doxycycline-inducible expression of human SLC6A19 and TMEM27; format: cell-based; conditions: read-out: SLC6A19_RapidFire Uptake Assay IC50
T1 construct: expressed in transfected cells
T1 sequence (Q695T7 1-634): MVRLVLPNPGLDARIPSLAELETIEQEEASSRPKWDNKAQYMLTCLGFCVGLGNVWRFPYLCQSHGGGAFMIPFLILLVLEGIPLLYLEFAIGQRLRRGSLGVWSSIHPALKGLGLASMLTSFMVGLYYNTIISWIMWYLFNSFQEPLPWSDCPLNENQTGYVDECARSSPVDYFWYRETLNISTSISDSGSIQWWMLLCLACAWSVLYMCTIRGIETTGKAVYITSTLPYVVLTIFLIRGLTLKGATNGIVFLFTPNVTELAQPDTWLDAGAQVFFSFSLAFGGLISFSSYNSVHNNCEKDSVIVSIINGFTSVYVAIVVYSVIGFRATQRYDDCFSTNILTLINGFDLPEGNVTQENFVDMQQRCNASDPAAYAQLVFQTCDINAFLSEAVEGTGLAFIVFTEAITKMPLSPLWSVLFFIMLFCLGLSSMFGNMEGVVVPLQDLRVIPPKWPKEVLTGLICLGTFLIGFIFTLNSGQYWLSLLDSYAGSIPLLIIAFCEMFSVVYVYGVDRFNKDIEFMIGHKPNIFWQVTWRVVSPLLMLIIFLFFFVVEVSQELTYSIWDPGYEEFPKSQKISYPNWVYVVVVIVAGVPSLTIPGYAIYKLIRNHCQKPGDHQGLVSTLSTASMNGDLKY
T1 sequence (Q9HBJ8 15-222 partner): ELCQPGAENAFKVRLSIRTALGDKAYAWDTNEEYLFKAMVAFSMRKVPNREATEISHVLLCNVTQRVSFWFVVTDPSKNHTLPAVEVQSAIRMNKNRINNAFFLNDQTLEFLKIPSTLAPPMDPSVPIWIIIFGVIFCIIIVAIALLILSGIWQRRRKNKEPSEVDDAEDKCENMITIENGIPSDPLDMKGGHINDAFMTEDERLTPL
In short: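 CHO cells were induced with doxycycline to express human SLC6A19 with TMEM27, then pre-incubated 20 min at 37 °C with compounds (2-fold, 10-point, duplicate). Uptake of 13C6,15N-isoleucine (2 mM solution added) over a further 20 min was measured by RapidFire mass spectrometry, using 13C-leucine as internal standard.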

human SLC6A19 [2] = biological target: T1, human SLC6A19; test: Example B-1: L-[3H]leucine uptake, liquid scintillation, in CHO cells with doxycycline-inducible expression of human SLC6A19 and TMEM27; format: cell-based; conditions: read-out: SLC6A19_Radioligand Uptake Assay IC50
In short: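 CHO cells induced 18 h with 1 µg/mL doxycycline (uninduced wells as expression control), washed in HBSS, compound in 8-point 3-fold series (0.5% DMSO), then 1.6 mM final [3H]:cold leucine (1:15000) uptake for 20 min at 37 °C. Scintillation counting; activity normalized to positive control (0%) and DMSO (100%).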

IC50 (human SLC6A19 [1]) [nM]	IC50 (human SLC6A19 [2]) [nM]	SMILES
626	387	CN(C(=O)NCc1cc2cc(Cl)ccc2[nH]1)[C@@H]1CCCN(C(=O)c2ccccn2)C1 [Compound 241, (R)-3-((5-chloro-1H-indol-2-yl)methyl)-1-methyl-1-(1-picolinoylpiperidin-3-yl)urea]
7080	> 10000	CC(=O)N1CCC[C@@H](N(C)C(=O)NCCc2ccc(F)c(-c3cc4ccccc4[nH]3)c2)C1 [Compound 244, (R)-1-(1-acetylpiperidin-3-yl)-3-(4-fluoro-3-(1H-indol-2-yl)phenethyl)-1-methylurea]
151	459	CC(=O)N1CCC[C@@H](N(C)C(=O)NCCc2cc(-c3cc4ccccc4[nH]3)c(Cl)cc2F)C1 [Compound 245, (R)-1-(1-acetylpiperidin-3-yl)-3-(4-chloro-2-fluoro-5-(1H-indol-2-yl)phenethyl)-1-methylurea]

Continued, compound first:

SMILES	IC50 (human SLC6A19 [1]) [nM]	IC50 (human SLC6A19 [2]) [nM]
CN(C(=O)NCc1cc2cc(Cl)ccc2[nH]1)[C@@H]1CCCN(C(=O)c2cnoc2)C1 [Compound 238, (R)-3-((5-chloro-1H-indol-2-yl)methyl)-1-(1-(isoxazole-4-carbonyl)piperidin-3-yl)-1-methylurea]	836	283
CN(C(=O)NCc1cc2cc(Cl)ccc2[nH]1)[C@@H]1CCCN(C(=O)c2cnco2)C1 [Compound 239, (R)-3-((5-chloro-1H-indol-2-yl)methyl)-1-methyl-1-(1-(oxazole-5-carbonyl)piperidin-3-yl)urea]	287	209
CCn1ccc(C(=O)N2CCC[C@@H](N(C)C(=O)NCc3cc4cc(Cl)ccc4[nH]3)C2)n1 [Compound 240, (R)-3-((5-chloro-1H-indol-2-yl)methyl)-1-(1-(1-ethyl-1H-pyrazole-3-carbonyl)piperidin-3-yl)-1-methylurea]	160	154
